We go through 24 compounds from paper PMC4441267.

A short description of this data set: CuAAC macrocyclisation of azide/terminal alkyne linear peptidomimetics to 1,4-triazole (CuI 2 eq, DIPEA 3 eq, Ar-degassed), then Boc removal (TMSCl/MeOH GP4; HCl/dioxane GP5 for A13w, J13w). The conditions noted are these: THF (reflux), 1.2 mM, 66.0 °C, 18.0 h, 2 steps.

`COC(=O)[C@@H]1CNC(=O)[C@H](Cc2ccccc2)n2cc(nn2)CNC(=O)NC[C@H](NC(=O)OC(C)(C)C)C(=O)N1` [Boc-Dap(CONH-propargyl)-Dap(N3-Phe)-OMe]: for the setting “from C#CCNC(=O)NC[C@H](NC(=O)OC(C)(C)C)C(=O)N[C@@H](CNC(=O)[C@H](Cc1ccccc1)N=[N+]=[N-])C(=O)OC, 16-membered ring”, the ring closure, yield over several steps is 99%.
Compound `COC(=O)[C@@H]1CNC(=O)[C@H](Cc2ccccc2)n2cc(nn2)CCCC(=O)NC[C@H](NC(=O)OC(C)(C)C)C(=O)N1` [Boc-Dap(5-hexynoyl)-Dap(N3-Phe)-OMe] returned a ring closure, yield over several steps (from C#CCCCC(=O)NC[C@H](NC(=O)OC(C)(C)C)C(=O)N[C@@H](CNC(=O)[C@H](Cc1ccccc1)N=[N+]=[N-])C(=O)OC, 17-membered ring) of 99%.
In the case of `COC(=O)[C@@H]1CCCn2cc(nn2)CCCC(=O)NCCC[C@H](NC(=O)OC(C)(C)C)C(=O)N1` [Boc-Orn(5-hexynoyl)-Orn(N3)-OMe], the ring closure, yield over several steps (from C#CCCCC(=O)NCCC[C@H](NC(=O)OC(C)(C)C)C(=O)N[C@@H](CCCN=[N+]=[N-])C(=O)OC, 18-membered ring) stood at 71%.
The compound `COC(=O)[C@@H]1CCCn2cc(nn2)CCCC(=O)NC[C@H](NC(=O)OC(C)(C)C)C(=O)N1` [Boc-Dap(5-hexynoyl)-Orn(N3)-OMe] had a ring closure, yield over several steps (from C#CCCCC(=O)NC[C@H](NC(=O)OC(C)(C)C)C(=O)N[C@@H](CCCN=[N+]=[N-])C(=O)OC, 16-membered ring) of 52%.
As to `COC(=O)[C@@H]1CCCCNC(=O)[C@H](Cc2ccccc2)n2cc(nn2)CCC(=O)NC[C@H](NC(=O)OC(C)(C)C)C(=O)N1` [Boc-Dap(4-pentynoyl)-Lys(N3-Phe)-OMe], the ring closure, yield over several steps (from C#CCCC(=O)NC[C@H](NC(=O)OC(C)(C)C)C(=O)N[C@@H](CCCCNC(=O)[C@H](Cc1ccccc1)N=[N+]=[N-])C(=O)OC, 19-membered ring) was determined as 99%.
As for `COC(=O)[C@@H]1CCCn2cc(nn2)CCC(=O)NC[C@H](NC(=O)OC(C)(C)C)C(=O)N1` [Boc-Dap(4-pentynoyl)-Orn(N3)-OMe], the ring closure, yield over several steps (from C#CCCC(=O)NC[C@H](NC(=O)OC(C)(C)C)C(=O)N[C@@H](CCCN=[N+]=[N-])C(=O)OC, 15-membered ring) worked out at 53%.
The compound `COC(=O)[C@@H]1CCCn2cc(nn2)CCCC(=O)NCC[C@H](NC(=O)OC(C)(C)C)C(=O)N1` [Boc-Dab(5-hexynoyl)-Orn(N3)-OMe] came in with a ring closure, yield over several steps (from C#CCCCC(=O)NCC[C@H](NC(=O)OC(C)(C)C)C(=O)N[C@@H](CCCN=[N+]=[N-])C(=O)OC, 17-membered ring) of 60%.
As to `COC(=O)[C@@H]1CCCCNC(=O)[C@H](Cc2ccccc2)n2cc(nn2)CNC(=O)NCC[C@H](NC(=O)OC(C)(C)C)C(=O)N1` [Boc-Dab(CONH-propargyl)-Lys(N3-Phe)-OMe], the ring closure, yield over several steps (from C#CCNC(=O)NCC[C@H](NC(=O)OC(C)(C)C)C(=O)N[C@@H](CCCCNC(=O)[C@H](Cc1ccccc1)N=[N+]=[N-])C(=O)OC, 20-membered ring) worked out at 80%.
In the case of `COC(=O)[C@@H]1CNC(=O)[C@H](Cc2ccccc2)n2cc(nn2)CCCC(=O)NCCC[C@H](NC(=O)OC(C)(C)C)C(=O)N1` [Boc-Orn(5-hexynoyl)-Dap(N3-Phe)-OMe], for the setting “from C#CCCCC(=O)NCCC[C@H](NC(=O)OC(C)(C)C)C(=O)N[C@@H](CNC(=O)[C@H](Cc1ccccc1)N=[N+]=[N-])C(=O)OC, 19-membered ring”, the ring closure, yield over several steps turned out to be 99%.
As for `COC(=O)[C@@H]1CCCn2cc(nn2)CCCC(=O)Nc2ccc(cc2)C[C@H](NC(=O)OC(C)(C)C)C(=O)N[C@@H](C)C(=O)N1` [Boc-Phe(4-NH-5-hexynoyl)-Ala-Orn(N3)-OMe], under “from C#CCCCC(=O)Nc1ccc(C[C@H](NC(=O)OC(C)(C)C)C(=O)N[C@@H](C)C(=O)N[C@@H](CCCN=[N+]=[N-])C(=O)OC)cc1, 23-membered ring”, the ring closure, yield over several steps worked out at 21%.
In the case of `COC(=O)[C@@H]1CCCn2cc(nn2)CNC(=O)NCCCC[C@H](NC(=O)OC(C)(C)C)C(=O)N1` [Boc-Lys(CONH-propargyl)-Orn(N3)-OMe], for the setting “from C#CCNC(=O)NCCCC[C@H](NC(=O)OC(C)(C)C)C(=O)N[C@@H](CCCN=[N+]=[N-])C(=O)OC, 18-membered ring”, the ring closure, yield over several steps turned out to be 93%.
Compound `COC(=O)[C@@H]1CCCn2cc(nn2)CCC(=O)NCCCC[C@H](NC(=O)OC(C)(C)C)C(=O)N1` [Boc-Lys(4-pentynoyl)-Orn(N3)-OMe] gave a ring closure, yield over several steps (from C#CCCC(=O)NCCCC[C@H](NC(=O)OC(C)(C)C)C(=O)N[C@@H](CCCN=[N+]=[N-])C(=O)OC, 18-membered ring) of 99%.
Compound `COC(=O)[C@@H]1CNC(=O)[C@H](Cc2ccccc2)n2cc(nn2)CNC(=O)NCCCC[C@H](NC(=O)OC(C)(C)C)C(=O)N1` [Boc-Lys(CONH-propargyl)-Dap(N3-Phe)-OMe] had a ring closure, yield over several steps (from C#CCNC(=O)NCCCC[C@H](NC(=O)OC(C)(C)C)C(=O)N[C@@H](CNC(=O)[C@H](Cc1ccccc1)N=[N+]=[N-])C(=O)OC, 19-membered ring) of 70%.
As for `COC(=O)[C@@H]1CCCCn2cc(nn2)CNC(=O)NCC[C@H](NC(=O)OC(C)(C)C)C(=O)N1` [Boc-Dab(CONH-propargyl)-Lys(N3)-OMe], the ring closure, yield over several steps (from C#CCNC(=O)NCC[C@H](NC(=O)OC(C)(C)C)C(=O)N[C@@H](CCCCN=[N+]=[N-])C(=O)OC, 17-membered ring) came to 99%.
The compound `COC(=O)[C@@H]1CCCCNC(=O)[C@H](Cc2ccccc2)n2cc(nn2)CCCC(=O)NCCC[C@H](NC(=O)OC(C)(C)C)C(=O)N1` [Boc-Orn(5-hexynoyl)-Lys(N3-Phe)-OMe] gave a ring closure, yield over several steps (from C#CCCCC(=O)NCCC[C@H](NC(=O)OC(C)(C)C)C(=O)N[C@@H](CCCCNC(=O)[C@H](Cc1ccccc1)N=[N+]=[N-])C(=O)OC, 22-membered ring) of 99%.
On to `COC(=O)[C@@H]1CCCCn2cc(nn2)CCC(=O)NCC[C@H](NC(=O)OC(C)(C)C)C(=O)N1` [Boc-Dab(4-pentynoyl)-Lys(N3)-OMe], for which the ring closure, yield over several steps (from C#CCCC(=O)NCC[C@H](NC(=O)OC(C)(C)C)C(=O)N[C@@H](CCCCN=[N+]=[N-])C(=O)OC, 17-membered ring) is 62%.
The compound `COC(=O)[C@@H]1CCCn2cc(nn2)CCC(=O)NCCCC[C@H](NC(=O)OC(C)(C)C)C(=O)N[C@H](C(=O)OC)CCC(=O)N1` [Boc-Lys(4-pentynoyl)-Glu(gamma-Orn(N3)-OMe)-OMe] displayed a ring closure, yield over several steps (from C#CCCC(=O)NCCCC[C@H](NC(=O)OC(C)(C)C)C(=O)N[C@@H](CCC(=O)N[C@@H](CCCN=[N+]=[N-])C(=O)OC)C(=O)OC, 23-membered ring) of 86%.
As for `COC(=O)[C@@H]1CCCCn2cc(nn2)CNC(=O)NC[C@H](NC(=O)OC(C)(C)C)C(=O)N1` [Boc-Dap(CONH-propargyl)-Lys(N3)-OMe], under “from C#CCNC(=O)NC[C@H](NC(=O)OC(C)(C)C)C(=O)N[C@@H](CCCCN=[N+]=[N-])C(=O)OC, 16-membered ring”, the ring closure, yield over several steps worked out at 56%.
In turn, `COC(=O)[C@@H]1CNC(=O)[C@H](Cc2ccccc2)n2cc(nn2)CCCC(=O)NCCCC[C@H](NC(=O)OC(C)(C)C)C(=O)N1` [Boc-Lys(5-hexynoyl)-Dap(N3-Phe)-OMe] registered a ring closure, yield over several steps (from C#CCCCC(=O)NCCCC[C@H](NC(=O)OC(C)(C)C)C(=O)N[C@@H](CNC(=O)[C@H](Cc1ccccc1)N=[N+]=[N-])C(=O)OC, 20-membered ring) of 61%.
In turn, `COC(=O)[C@@H]1CCCCn2cc(nn2)CNC(=O)NCCC[C@H](NC(=O)OC(C)(C)C)C(=O)N1` [Boc-Orn(CONH-propargyl)-Lys(N3)-OMe] registered a ring closure, yield over several steps (from C#CCNC(=O)NCCC[C@H](NC(=O)OC(C)(C)C)C(=O)N[C@@H](CCCCN=[N+]=[N-])C(=O)OC, 18-membered ring) of 99%.
In the case of `COC(=O)[C@@H]1CCCCNC(=O)[C@H](Cc2ccccc2)n2cc(nn2)CNC(=O)NCCC[C@H](NC(=O)OC(C)(C)C)C(=O)N1` [Boc-Orn(CONH-propargyl)-Lys(N3-Phe)-OMe], under “from C#CCNC(=O)NCCC[C@H](NC(=O)OC(C)(C)C)C(=O)N[C@@H](CCCCNC(=O)[C@H](Cc1ccccc1)N=[N+]=[N-])C(=O)OC, 21-membered ring”, the ring closure, yield over several steps was 87%.
Consider `COC(=O)[C@@H]1CCCCn2cc(nn2)CCCC(=O)NCCC[C@H](NC(=O)OC(C)(C)C)C(=O)N1` [Boc-Orn(5-hexynoyl)-Lys(N3)-OMe], for which the ring closure, yield over several steps (from C#CCCCC(=O)NCCC[C@H](NC(=O)OC(C)(C)C)C(=O)N[C@@H](CCCCN=[N+]=[N-])C(=O)OC, 19-membered ring) worked out at 99%.
The compound `COC(=O)[C@@H]1CCCCNC(=O)[C@H](Cc2ccccc2)n2cc(nn2)CNC(=O)NCCCC[C@H](NC(=O)OC(C)(C)C)C(=O)N1` [Boc-Lys(CONH-propargyl)-Lys(N3-Phe)-OMe] returned a ring closure, yield over several steps (from C#CCNC(=O)NCCCC[C@H](NC(=O)OC(C)(C)C)C(=O)N[C@@H](CCCCNC(=O)[C@H](Cc1ccccc1)N=[N+]=[N-])C(=O)OC, 22-membered ring) of 99%.
As to `COC(=O)[C@@H]1CNC(=O)[C@H](Cc2ccccc2)n2cc(nn2)CCC(=O)NC[C@H](NC(=O)OC(C)(C)C)C(=O)N1` [Boc-Dap(4-pentynoyl)-Dap(N3-Phe)-OMe], for the setting “from C#CCCC(=O)NC[C@H](NC(=O)OC(C)(C)C)C(=O)N[C@@H](CNC(=O)[C@H](Cc1ccccc1)N=[N+]=[N-])C(=O)OC, 16-membered ring”, the ring closure, yield over several steps turned out to be 83%.
